The values below come from patent publication US9603900B2, “Use of PACAP for the treatment of viral infections in aquatic organisms” (Centro de Ingenieria Genetica y Biotecnologia, priority 2010, dated 2017).

Assay [1] relates to VPAC-1 receptor. In words: VPAC-1 receptor expression (qPCR) in anterior kidney leukocytes treated with poly I:C. In kind it is cell-based, rainbow trout (Oncorhynchus mykiss). Conditions: cultured leukocytes, poly I:C, 4, 24 and 48 hours.
The test system of assay [2] is PAC-1 receptor. Nature of the assay: PAC-1 receptor expression (qPCR) in head kidney leukocytes treated with poly I:C. Format: cell-based, rainbow trout (O. mykiss). Conditions: poly I:C 30 μg/mL, 4, 24 and 48 hours. The protocol:
Juvenile rainbow trout (O. mykiss) was used from 9 to 12 grams and 7 months of age, VHSV and IPNV free. Fish were maintained at 14° C. with water circulation. Food was administered twice a day ad libitum. The virus, VHSV (strain 0771) and IPNV (strain Sp) were propagated in the rainbow trout gonad cell line RTG-2 (Sena and Rio (1975) Infect Immun 11:815-22). Cells were grown in minimal essential medium (MEM, Invitrogen, USA) supplemented with 10% of fetal calf serum (FCS, Invitrogen) containing 100 IU/mL of penicillin and 100 μg/mL of streptomycin. The viruses were inoculated into RTG-2 cells grown in MEM with antibiotics and 2% FCS at 14° C. […] The viral titers were determined in 96-well plates as reported by Reed and Muench (Reed and Muench ([…]) J Hyg 27:280-9). […]
Finally, total RNA was purified from leukocytes cultures using the method described by Chomczynski and Sacchi (Chomczynski and Sacchi (1987) Anal. Biochem. 162:156-9) to evaluate the expression levels of the PAC-1 receptor on leukocytes untreated and treated with Poly I:C or infected with viruses. […] For quantitative PCR reactions (qPCR) was used a mixture of PCR from commercial sources: Power SYBR Green PCR Master Mix (Applied Biosystems). […] The results were expressed as 2^−ΔCt, where ΔCt is equal to the remainder of the gene Ct value minus the assessed value of Ct normalizer gene (EF 1α).

poly I:C: in assay [1], the “levels of VPAC-1 expression relative to EF1α” value is “over-expressed”. Also, the “levels of PAC-1 expression relative to EF1α” value in assay [2] is “over-expressed”.
